From patent publication US4562176A, “Method and composition for treating cancer” (priority 1985, dated 1985) come the findings set out here.

≈ marks a conversion by molar mass, not a printed value.

The test system of one series is DNA. Put plainly: DNA-drug binding by difference spectral (absorption and CD) techniques. Particulars: difference spectral or ΔTm techniques. The text has this: ^b Diff. Absorption Spectra is the calculated absorption spectra
obtained by subtracting the spectrum of the DNAbound analogue from the
spectrum of the free analogue, measured at 340-600 nm.
^c Diff. CD Spectra is the calculated CD Spectra obtained as the
difference of the DNAbound from the combined individual spectra of
analogues and DNA at 340-600 nm.
Medium: 0.01 M phosphate containing 10^-4 EDTA, buffer pH 7.0.
DNA-DRUG BINDING BY DIFFERENCE SPECTRAL AND THERMAL DEVATURATION OF DNA (ΔTm) TECHNIQUES
These experiments were performed according to the methods described by Sengupta et al., Cancer Chemother. Rep., 1974, 58, p. 35, Sengupta et al, J. Med. Chem., 1981, 24, p. 1052 and Sengupta et al, 1983, 26, p. 448, Sengupta et al, 1978, Biochem. Biophys Acta, 521, p. 89.

Series [1] has as its system human lymphoblastic leukemia cells (CCRF-CEM). In words: In vitro growth inhibition of CCRF-CEM cells. In kind it is cell-based. Particulars: for In Vitro (CCRF-CEM) ID50: cells in log-phase growth, suspension culture, final growth medium 5% Me2SO. The procedure:
^b Human lymphoblastic luekemia cells in logphase growth and in a
suspension culture. Compounds were dissolved in Me2 SO medium, final
growth medium contained 5% Me2 SO.
In vitro growth inhibition of the analogues were assayed against human lymphoblastic leukemia cells (CCRF-CEM) in log phase. The most cyctoxic are AMD-OZN analogues 2b and 2g and AMD-OZL analogues 4a-4c. However, compared to AMD, they are several fold less cytotoxic to CEM-cells in vitro.

For series [2], the system named is P388 lymphocytic leukemia. Put plainly: In vivo P388 assay. As to conditions: ip days 1,5,9; for % ILS (percent increase in life span) / MST (median survival time) / Cure (over 60 day survivors): at optimum dose; for % ILS (percent increase in life span) / MST (median survival time): CDF1 male mice; for MST (median survival time): control MST 11.0 days; for Cure (over 60 day survivors): group of 7 CDF1 male mice, average of 2 experiments. On the set-up: species or system mice. How it is done:
^c 10^6 P388 cells implanted intraperitoneally on day 0 into a
group of 7 CDF1 male mice. Drugs were administered, also ip, in 10%
Me2 SO--saline on days 1,5,9. Test solutions were kept at 0-4.degree
C., protected from light.
These analogues were tested for antitumor activity against P388 lymphocytic leukemia in male CDF1 hybrid mice (Table 6). The tumor was implanted intraperitoneally (ip) with 10^6 cells. The drugs were administered once daily on days 1, 5, 9 beginning 1 day after implantation.

Series [3] can be described thus: Solubility in distilled water. How it is done: SOLUBILITY OF ACTINOMYCIN D AND ANALOGUES 2b, 3b AND 4b IN DISTILLED WATER AT 20° C. AND 4° C.

Take `Cc1c2oc3c(C)ccc(C(=O)N[C@@H]4C(=O)N[C@H](C(C)C)C(=O)N5CCC[C@H]5C(=O)N(C)CC(=O)N(C)[C@@H](C(C)C)C(=O)O[C@@H]4C)c3nc-2c(C(=O)N[C@@H]2C(=O)N[C@H](C(C)C)C(=O)N3CCC[C@H]3C(=O)N(C)CC(=O)N(C)[C@@H](C(C)C)C(=O)O[C@@H]2C)cc1=O` [2-deamino AMD]: the “DNA binding (in words)” value in the series with DNA is on record as “binds to DNA strongly by intercalation”.

As to `Cc1ccc(C(=O)N[C@@H]2C(=O)N[C@H](C(C)C)C(=O)N3CCC[C@H]3C(=O)N(C)CC(=O)N(C)[C@@H](C(C)C)C(=O)O[C@@H]2C)c2c1Oc1c(c(C(=O)N[C@@H]3C(=O)N[C@H](C(C)C)C(=O)N4CCC[C@H]4C(=O)N(C)CC(=O)N(C)[C@@H](C(C)C)C(=O)O[C@@H]3C)c3nc(-c4ccccc4Cl)c(=O)oc3c1C)N2` [Compound 2c], the “In Vitro (CCRF-CEM) ID50” value in series [1] amounted to 1.8 µg/mL. In addition, in series [2], the “% ILS (percent increase in life span)” value was found to be 172%, the “MST (median survival time)” value is on record as 30 days and the “Cure (over 60 day survivors)” value was 1/7.

`Cc1ccc(C(=O)N[C@@H]2C(=O)N[C@H](C(C)C)C(=O)N3CCC[C@H]3C(=O)N(C)CC(=O)N(C)[C@@H](C(C)C)C(=O)O[C@@H]2C)c2c1Oc1c(c(C(=O)N[C@@H]3C(=O)N[C@H](C(C)C)C(=O)N4CCC[C@H]4C(=O)N(C)CC(=O)N(C)[C@@H](C(C)C)C(=O)O[C@@H]3C)c3nc(-c4cccc(Cl)c4)c(=O)oc3c1C)N2` [Compound 2d]: the “In Vitro (CCRF-CEM) ID50” value in series [1] turned out to be 1.6 µg/mL. Moreover, in series [2], the “% ILS (percent increase in life span)” value is reported as 164%, the “MST (median survival time)” value amounted to 29 days and the “Cure (over 60 day survivors)” value is 0/7.

For `Cc1ccc(C(=O)N[C@@H]2C(=O)N[C@H](C(C)C)C(=O)N3CCC[C@H]3C(=O)N(C)CC(=O)N(C)[C@@H](C(C)C)C(=O)O[C@@H]2C)c2c1Oc1c(c(C(=O)N[C@@H]3C(=O)N[C@H](C(C)C)C(=O)N4CCC[C@H]4C(=O)N(C)CC(=O)N(C)[C@@H](C(C)C)C(=O)O[C@@H]3C)c3nc(-c4ccc(Cl)cc4)c(=O)oc3c1C)N2` [Compound 2e], in series [1], the “In Vitro (CCRF-CEM) ID50” value is 1.6 µg/mL. Moreover, in series [2], the “% ILS (percent increase in life span)” value stood at 164%, the “MST (median survival time)” value worked out at 29 days and the “Cure (over 60 day survivors)” value is on record as 0/7.

With `Cc1ccc(C(=O)N[C@@H]2C(=O)N[C@H](C(C)C)C(=O)N3CCC[C@H]3C(=O)N(C)CC(=O)N(C)[C@@H](C(C)C)C(=O)O[C@@H]2C)c2c1Oc1c(c(C(=O)N[C@@H]3C(=O)N[C@H](C(C)C)C(=O)N4CCC[C@H]4C(=O)N(C)CC(=O)N(C)[C@@H](C(C)C)C(=O)O[C@@H]3C)c3nc(-c4ccc(Cl)cc4Cl)c(=O)oc3c1C)N2` [Compound 2f], the “In Vitro (CCRF-CEM) ID50” value in series [1] came out at 3.2 µg/mL. Moreover, in series [2], the “% ILS (percent increase in life span)” value worked out at 155%, the “MST (median survival time)” value is recorded as 28 days and the “Cure (over 60 day survivors)” value was 0/7.

Take `Cc1ccc(C(=O)N[C@@H]2C(=O)N[C@H](C(C)C)C(=O)N3CCC[C@H]3C(=O)N(C)CC(=O)N(C)[C@@H](C(C)C)C(=O)O[C@@H]2C)c2c1Oc1c(c(C(=O)N[C@@H]3C(=O)N[C@H](C(C)C)C(=O)N4CCC[C@H]4C(=O)N(C)CC(=O)N(C)[C@@H](C(C)C)C(=O)O[C@@H]3C)c3nc(-c4c(F)c(F)c(F)c(F)c4F)c(=O)oc3c1C)N2` [Compound 2g]: the “cytotoxicity to CEM cells (in words)” value in series [1] (CCRF-CEM in log phase) is reported as “most cyctoxic”. Also, the “In Vitro (CCRF-CEM) ID50” value in series [1] was determined as 0.64 µg/mL. In addition, in series [2], the “% ILS (percent increase in life span)” value is given as 186%, the “MST (median survival time)” value is listed as 31.5 days and the “Cure (over 60 day survivors)” value is recorded as 1/7.

Regarding `CCCCCCc1nc2c(C(=O)N[C@@H]3C(=O)N[C@H](C(C)C)C(=O)N4CCC[C@H]4C(=O)N(C)CC(=O)N(C)[C@@H](C(C)C)C(=O)O[C@@H]3C)c3c(c(C)c2oc1=O)Oc1c(C)ccc(C(=O)N[C@@H]2C(=O)N[C@H](C(C)C)C(=O)N4CCC[C@H]4C(=O)N(C)CC(=O)N(C)[C@@H](C(C)C)C(=O)O[C@@H]2C)c1N3` [Compound 2h], in series [1], the “In Vitro (CCRF-CEM) ID50” value was 2.08 µg/mL. In series [2], the “% ILS (percent increase in life span)” value was determined as 127%, the “MST (median survival time)” value was found to be 25 days and the “Cure (over 60 day survivors)” value is given as 0/7.

On to `Cc1ccc(C(=O)N[C@@H]2C(=O)N[C@H](C(C)C)C(=O)N3CCC[C@H]3C(=O)N(C)CC(=O)N(C)[C@@H](C(C)C)C(=O)O[C@@H]2C)c2c1Oc1c(c(C(=O)N[C@@H]3C(=O)N[C@H](C(C)C)C(=O)N4CCC[C@H]4C(=O)N(C)CC(=O)N(C)[C@@H](C(C)C)C(=O)O[C@@H]3C)c3nc(-c4ccc5ccccc5c4)c(=O)oc3c1C)N2` [Compound 2i, 3-(2-NAPHTHYL)-10,12-DIMETHYL-2H,6H-OXAZINO[3,2-b]PHENOXAZINE-2-ONE 5,7-BIS[CARBONYL-L-THREONYL-D-VALYL-L-PROLYLSARCOSYL-L-N-METHYLVALINE-(THR EONINE HYDROXYL)] LACTONE], for which the “In Vitro (CCRF-CEM) ID50” value in series [1] came to 1 µg/mL. In addition, in series [2], the “% ILS (percent increase in life span)” value is reported as 136%, the “MST (median survival time)” value came out at 26 days and the “Cure (over 60 day survivors)” value was 0/7.

Regarding `Cc1ccc(C(=O)N[C@@H]2C(=O)N[C@H](C(C)C)C(=O)N3CCC[C@H]3C(=O)N(C)CC(=O)N(C)[C@@H](C(C)C)C(=O)O[C@@H]2C)c2c1Oc1c(c(C(=O)N[C@@H]3C(=O)N[C@H](C(C)C)C(=O)N4CCC[C@H]4C(=O)N(C)CC(=O)N(C)[C@@H](C(C)C)C(=O)O[C@@H]3C)c3nc(-c4ccccc4)oc3c1C)N2` [Compound 3b, 2-PHENYL-9,11-DIMETHYL-5H-OXAZOLO[4,5-b]PHENOXAZINE 4,6-BIS[CARBONYL-L-THREONYL-D-VALYL-L-PROLYLSARCOSYL-L-N-METHYL-VALINE-(TH REONINE HYDROXYL)] LACTONE], the “In Vitro (CCRF-CEM) ID50” value in series [1] amounted to 9 µg/mL. Further, in series [2], the “% ILS (percent increase in life span)” value was 109%, the “MST (median survival time)” value is reported as 23 days and the “Cure (over 60 day survivors)” value is reported as 0/7.

As to `Cc1ccc(C(=O)N[C@@H]2C(=O)N[C@H](C(C)C)C(=O)N3CCC[C@H]3C(=O)N(C)CC(=O)N(C)[C@@H](C(C)C)C(=O)O[C@@H]2C)c2c1Oc1c(c(C(=O)N[C@@H]3C(=O)N[C@H](C(C)C)C(=O)N4CCC[C@H]4C(=O)N(C)CC(=O)N(C)[C@@H](C(C)C)C(=O)O[C@@H]3C)c3nc(-c4c(F)c(F)c(F)c(F)c4F)oc3c1C)N2` [Compound 3c], in series [1], the “In Vitro (CCRF-CEM) ID50” value came out at 12.5 µg/mL. In addition, in series [2], the “% ILS (percent increase in life span)” value is recorded as 72%, the “MST (median survival time)” value came out at 19 days and the “Cure (over 60 day survivors)” value is reported as 0/7.

In the case of `Cc1c2oc3c(C)c4oc(-c5ccccc5)nc4c(C(=O)N[C@@H]4C(=O)N[C@H](C(C)C)C(=O)N5CCC[C@H]5C(=O)N(C)CC(=O)N(C)[C@@H](C(C)C)C(=O)O[C@@H]4C)c3nc-2c(C(=O)N[C@@H]2C(=O)N[C@H](C(C)C)C(=O)N3CCC[C@H]3C(=O)N(C)CC(=O)N(C)[C@@H](C(C)C)C(=O)O[C@@H]2C)cc1=O` [Compound 4b, 2-PHENYL-9,11-DIMETHYL-8-OXO-8H-OXAZOLO[4,5-b]PHENOXAZINE 4,6-BIS[CARBONYL-L-THREONYL-D-VALYL-L-PROLYLSARCOSYL-L-N-METHYLVALINE-(THR EONINE HYDROXYL)] LACTONE], the “In Vitro (CCRF-CEM) ID50” value in series [1] was found to be 0.31 µg/mL. Moreover, the “activity against human cancer cells (in words)” value in series [1] (human cancer cells) is given as “highest human antitumor effects”. In addition, the “antitumor activity against P388 (in words)” value in series [2] (CDF1 mice) is given as “most active”. Also, in series [2], the “% ILS (percent increase in life span)” value is on record as 300%, the “MST (median survival time)” value was determined as 44 days and the “Cure (over 60 day survivors)” value is 2/7. The “relative solubility in water (in words)” value in series [3] is “more soluble in water at 4 °C than at 20 °C”. The “solubility in distilled water” value in series [3] (4° C.) came out at 11000 µg/mL (≈ 8.1 mM). In addition, the “solubility in distilled water” value in series [3] (20° C.) is 1700 µg/mL (≈ 1.25 mM).

Take `Cc1c2oc3c(C)c4oc(-c5c(F)c(F)c(F)c(F)c5F)nc4c(C(=O)N[C@@H]4C(=O)N[C@H](C(C)C)C(=O)N5CCC[C@H]5C(=O)N(C)CC(=O)N(C)[C@@H](C(C)C)C(=O)O[C@@H]4C)c3nc-2c(C(=O)N[C@@H]2C(=O)N[C@H](C(C)C)C(=O)N3CCC[C@H]3C(=O)N(C)CC(=O)N(C)[C@@H](C(C)C)C(=O)O[C@@H]2C)cc1=O` [Compound 4c]: the “In Vitro (CCRF-CEM) ID50” value in series [1] is 0.63 µg/mL. In series [2], the “% ILS (percent increase in life span)” value came to 172%, the “MST (median survival time)” value came to 30 days and the “Cure (over 60 day survivors)” value is listed as 1/7.
